Like-named read-outs stand apart in the source and are kept apart here.
Legend:
Type in all cases: cell-based
[1] = tested on: N2a695 cells; experiment: Aβ38, Aβ40, Aβ42 in conditioned media of N2a695 cells, MSD ELISA; conditions: N2a695 cell supernatant, 5 h, single experiment
[2] = tested on: N2a695 cells; experiment: as above; conditions: N2a695 cell supernatant, 5 h, single experiment; remark: listed apart in the source
Method: (§1) N2a695 were cultured in 1:1 OptiMem Reduced Serum Media (Life Technologies): Dulbecco’s Modified Eagle Medium ([+] 4.5 g/L D-glucose [+] L-Glutamine; [−] Sodium pyruvate (Life Technologies) supplemented with 5% fetal bovine serum, 0.4% Penstrep and 0.4% Geneticin and incubated at 37°C in 5% CO2. Antibodies were obtained from The Laboratory of Molecular and Cellular Neuroscience at The Rockefeller University. Human Aβ40 and Aβ42 ELISA plates (Life Technologies) and Plus MSD (Mesoscale Discovery) plates for Aβ Peptide (Aβ38, Aβ40 and Aβ42) Panel 1 (6E10) Kit (Catalog number K15200G) were obtained from Thermo Fisher, Life Technologies and Meso Scale Discovery.
(§2) N2a695 cells were used to screen all new compounds and in the follow-up studies with compounds found active in the preliminary screen. In a typical experiment, 6-well tissue culture plates (Corning) were seeded at 4.0 × 10^5–4.5 × 10^5 N2a695 cells/mL, 2 mL/well for overnight incubation. When cells were >95% confluent, media were exchanged with fresh media containing 10 µM solutions of compounds or DMSO carrier alone and cells were incubated at 37°C in 5% CO2 for 5 h. Culture media were collected and soluble Aβ concentrations in the media were determined by ELISA or MSD plates for human Aβ peptides as per manufacturer instructions. Signals for Aβ were measured using Perkin Elmer Envision and SQ120 MSD ELISA reader. Follow-up studies with N2a695 cells were performed similarly.
Similarly, we evaluated all IMTi-1 and IMTi-2 analogs, including the Boc-protected compounds, using N2a695 cells. […] To further examine the activities of the active analogs and whether IMTi’s has any bias on amyloidogenic vs. nonamyloidogenic cleavage of APP, we retested dozens of IMTi-1 and 2 analogs, including several found active in the screening assay and some tested for the first time using N2a695 cells as above, and performed MSD ELISA of the conditioned media to measure Aβ40, Aβ38, and Aβ42 peptides simultaneously.

[3] = tested on: N2a695 cells; experiment: Screening of Aβ production in N2a695 cells (Aβ ELISA of cell supernatants); conditions: N2a695 cells
Method: as §1, §2
Specifically, we exposed N2a695 cells to increasing concentrations of each compound and measured the production of Aβ38, 40, and 42. […] Remarkably, this occurs for all Aβ peptides tested shorter than 40 amino acids (Figure 2C). Moreover, for some compounds that modulate γ-secretase activity most conspicuously at 5 μM, this effect vanishes at 10 μM, relative to controls (Figure 2B, C). […]

[4] = tested on: β- and γ-cleavages of APP; experiment: Aβ in N2a cells transiently transfected with APP-FL or APP99 (APP-βCTF): BACE vs γ-secretase cleavage; conditions: N2a cells transiently transfected with APP695 (APP-FL) or APP C99, 5 h
Method: To determine effects of compounds on BACE1 vs. GS inhibition, we used N2a cells transiently transfected with full length APP (APP-FL) or with APP99 (APP-βCTF) as described previously ([Netzer et al., 2017]; [Sun et al., 2019]). After 48 h, media were removed and fresh media containing compound 1a and analogs were added. Following 5 h of incubation, cell supernatants were collected, and analyzed using MSD-ELISA for Aβ and sAPPα and western blot for sAPPβ.
We focused on IMTi-1 and its analogs 1d, 1f and 1p. […] To test whether these compounds lower Aβ levels by affecting the BACE and/or γ-secretase cleavages, we transfected wild-type (wt) cells with APP-FL and APP βCTF (C99), respectively, and incubated the cells with IMTi-1 (isomer) and analogs 1d, 1f and 1p. We used BACE inhibitor, MK8931, and γ-secretase inhibitor, DAPT, as controls and performed the experiments and processed the results as described previously ([Sun et al., 2019]).

## Cc1ccccc1Nc1nccc(-c2cccc(NC(=O)c3ccc(CNCC(C)(C)C)cc3)c2)n1 [Compound 1i]
[1]; read-out: % Aβ38 of DMSO ctrl
  activity at 5 µM: 106%
[1]; read-out: % Aβ40 of DMSO ctrl
  activity at 5 µM: 56%
[1]; read-out: % Aβ42 of DMSO ctrl
  activity at 5 µM: 58%
[2]; read-out: % Aβ38 of DMSO ctrl
  activity at 10 µM: 85%
[2]; read-out: % Aβ40 of DMSO ctrl
  activity at 10 µM: 41%
[2]; read-out: % Aβ42 of DMSO ctrl
  activity at 10 µM: 46%

## Cc1ccccc1Nc1nccc(-c2cncc(NC(=O)c3ccc(CNC4CCCCC4)cc3)c2)n1 [Compound 1j]
[1]; read-out: % Aβ38 of DMSO ctrl
  activity at 5 µM: 112%
[1]; read-out: % Aβ40 of DMSO ctrl
  activity at 5 µM: 83%
[1]; read-out: % Aβ42 of DMSO ctrl
  activity at 5 µM: 75%
[2]; read-out: % Aβ38 of DMSO ctrl
  activity at 10 µM: 123%
[2]; read-out: % Aβ40 of DMSO ctrl
  activity at 10 µM: 73%
[2]; read-out: % Aβ42 of DMSO ctrl
  activity at 10 µM: 65%

## Cc1ccccc1Nc1nccc(-c2cccc(NC(=O)c3ccc(CN(C(=O)OC(C)(C)C)C4CCCCC4)cc3)c2)n1 [Compound 1k-Boc]
[3]; 10 µM
  Aβ production in the screen (Fig. S1): increase in Aβ production

## Cc1ccccc1Nc1nccc(-c2cccc(NC(=O)c3ccc(CNC4CCCCC4)cc3)c2)n1 [Compound 1k]
[1]; read-out: % Aβ38 of DMSO ctrl
  activity at 5 µM: 120%
[1]; read-out: % Aβ40 of DMSO ctrl
  activity at 5 µM: 60%
[1]; read-out: % Aβ42 of DMSO ctrl
  activity at 5 µM: 56%
[2]; read-out: % Aβ38 of DMSO ctrl
  activity at 10 µM: 92%
[2]; read-out: % Aβ40 of DMSO ctrl
  activity at 10 µM: 38%
[2]; read-out: % Aβ42 of DMSO ctrl
  activity at 10 µM: 38%

## Cc1ccccc1Nc1nccc(-c2cncc(NC(=O)c3ccc(C4CCCN(C)C4)cc3)c2)n1 (stereo not drawn) [Compound 1n]
[1]; read-out: % Aβ38 of DMSO ctrl
  activity at 5 µM: 112%
[1]; read-out: % Aβ40 of DMSO ctrl
  activity at 5 µM: 63%
[1]; read-out: % Aβ42 of DMSO ctrl
  activity at 5 µM: 56%
[2]; read-out: % Aβ38 of DMSO ctrl
  activity at 10 µM: 95%
[2]; read-out: % Aβ40 of DMSO ctrl
  activity at 10 µM: 42%
[2]; read-out: % Aβ42 of DMSO ctrl
  activity at 10 µM: 38%

## CN(C)CCc1ccc(C(=O)Nc2cccc(-c3ccnc(Nc4cccnc4)n3)c2)cc1 [Compound 1p]
[1]; read-out: % Aβ38 of DMSO ctrl
  activity at 5 µM: 58%
[1]; read-out: % Aβ40 of DMSO ctrl
  activity at 5 µM: 41%
[1]; read-out: % Aβ42 of DMSO ctrl
  activity at 5 µM: 38%
[2]; read-out: % Aβ38 of DMSO ctrl
  activity at 10 µM: 24%
[2]; read-out: % Aβ40 of DMSO ctrl
  activity at 10 µM: 18%
[2]; read-out: % Aβ42 of DMSO ctrl
  activity at 10 µM: 15%
[4]
  BACE and γ-secretase cleavage of APP, Aβ levels: lower BACE and γ-secretase cleavage of APP

## Cc1ccc(Nc2nccc(-c3ccc(CNC4CCCCC4)cc3)n2)cc1NC(=O)c1cccnc1 [Compound 2b]
[1]; read-out: % Aβ38 of DMSO ctrl
  activity at 5 µM: 93%
[1]; read-out: % Aβ40 of DMSO ctrl
  activity at 5 µM: 90%
[1]; read-out: % Aβ42 of DMSO ctrl
  activity at 5 µM: 88%
[2]; read-out: % Aβ38 of DMSO ctrl
  activity at 10 µM: 74%
[2]; read-out: % Aβ40 of DMSO ctrl
  activity at 10 µM: 71%
[2]; read-out: % Aβ42 of DMSO ctrl
  activity at 10 µM: 74%

## Cc1ccc(Nc2nccc(-c3ccc(CN4CCN(C)CC4)cc3)n2)cc1NC(=O)c1cccnc1 [IMTi-2]
[3]; 10 µM
  Aβ40 levels: 68%
[3]
  Activity in Aβ production assays: active

## Cc1ccc(CN2CCN(Cc3ccc(C(=O)Nc4cccnc4)cc3)CC2)cc1Nc1ncccn1 [IMTi-3]
[3]; 10 µM
  Aβ40 levels: 93%
[3]
  Activity in Aβ production assays: inactive

Reference: publication PMC11493595, “Stretching the structural envelope of imatinib to reduce β-amyloid production by modulating both β- and γ-secretase cleavages of APP” (Frontiers in Chemistry, 2024)
